In brackets after ≈: the same amount, converted by molar mass.

The values that follow come from patent publication US6110491A, “Compound-loaded liposomes and methods for their preparation” (Hermes Biosciences, Inc., priority 1997, dated 2000).

Data set [1] is described as follows: Doxorubicin loading into liposomes with entrapped sodium salts of sulfuric, phosphoric, polyvinylsulfuric or polyphosphoric acid, without or with nigericin (Examples 4, 5). Type of data set: physicochemical. As for the experimental part: Liposomes were prepared from egg phosphatidylcholine using the procedure identical to Example 1 but instead of polyacrylic acid, the inner buffers contained one of the following salts: sodium sulfate, sodium phosphate, sodium polyvinylsulfate (Fluka, Ronkonkoma, N.Y.; average chain length n=13), or sodium polyphosphate (Sigma Chemical Co.; average chain length n=13-18), at a concentration of 100 mill-equivalents of sodium/L. The liposomes were incubated with doxorubicin (300 nmol/μmol of phospholipid) overnight, free drug was removed from the liposomes, and the liposomes were assayed as described in Example 1. Drug incorporation into the liposomes was as follows (in nmol/μmol of phospholipid): sodium sulfate, 82.1±0.95; sodium phosphate, 76.8±2.3; sodium polyvinylsulfate, 109.8±0.25; sodium polyphosphate, 85.2±2.2; "blank" liposomes, containing 100 mM sodium chloride, 1.03±0.06.
Liposomes were prepared and loading with doxorubicin as in Example 4, except that prior to drug loading, nigericin was added to the liposomes at a concentration of 5 μmol/L. The following drug incorporation (nmol/μmol of phospholipid) was obtained in the liposomes containing: sodium sulfate, 96.5±1.9; sodium phosphate, 271.9±3.8; sodium polyvinylsulfate, 133.7±1.9; sodium polyphosphate, 169.7±2.7.

Data set [2] has as its system Human nasopharyngeal epidermoid carcinoma (KB) cells. As to the kind of experiment: Cytotoxicity, growth inhibition by tetrazolium assay (96 hour incubation). Type of data set: cell-based. The following applies: read-out: 50% growth inhibitory concentration (IC50). As for the experimental part:
Human nasopharyngeal epidermoid carcinoma (KB) cells were from American Type Culture Collection (ATCC, Rockville, M.D.). The cells were grown in RPMI 1640 medium supplemented with 10% heat inactivated fetal calf serum, harvested by trypsinization, and plated in 96-well tissue culture plates at 2×10^4 cells/well. After a 24 hour acclimation period, a solution of free doxorubicin or the doxorubicin liposomes described in Example 1 were added to the cells to achieve final doxorubicin concentrations of 0.125-8 μg/ml. "Empty" liposomes were added to control cells at matching concentrations of the lipid. After a 96 hour incubation period, viability of the cells was measured by tetrazolium assay (Carmichael, et al., 1987). 50% growth inhibitory concentrations (IC50) of the studied preparation were as follows: […]

A short description of data set [3]: Doxorubicin loading into liposomes with entrapped polyacrylate / chondroitin sulfate A (Examples 1, 3). The format is physicochemical. The procedure: 21.6 mg of polyacrylic acid (molecular weight 2,000; Aldrich Corporation, Milwaukee, Wis.) were dissolved in 3 ml of water and neutralized to pH 7.4 with NaOH to produce 100 milli-eq/L sodium polyacrylate solution. 10 mg of the mixture of egg PC, cholesterol, and PEG (molecular weight 2,000)-DSPE (Avanti Polar Lipids, Birmingham, Ala.) in the molar ratio of 10:5:1 was dissolved in chloroform, the solvent was evaporated in vacuum, the lipid film was incubated with shaking in 1 ml of the above polyacrylate solution, and the lipid dispersion was extruded under pressure through 2 stacked Nucleopore (Pleasanton, Calif.) membranes with pore size […]. […] To the so obtained liposomes, doxorubicin (Cetus Oncology, Norwalk, Conn.) was added at 200 nmol/μmol, of liposomal phospholipid. The mixture was incubated overnight at 37° C. with shaking, treated with Dowex 50W×4 (Sigma Chemical Co., St. Louis, Mo.), and equilibrated with NaCl-HEPES solution to remove non-encapsulated doxorubicin. The resulting liposomes were sterilized by filtration through a […] filter and assayed for doxorubicin by spectrophotometry and liposomal phospholipid by acid digestion-molybdene blue assay. […] Under similar conditions, doxorubicin loading into liposomes without entrapped sodium polyacrylate was 8 nmol/μmol of phospholipid.
Liposomes were prepared as in Example 1, except that inner buffer, instead of polyacrylic acid, contained 5 mg/ml of chondroitinsulfate A (Sigma Chemical Co., St. Louis, Mo.). After overnight incubation with doxorubicin ([…] of phospholipid) at pH 7.2, free drug was removed from the liposomes, and the liposomes were assayed as in Example 1. The doxorubicin content in the resulting liposomes was 26.0 nmol/μmol of phospholipid.

`COc1cccc2c1C(=O)c1c(O)c3c(c(O)c1C2=O)C[C@@](O)(C(=O)CO)C[C@@H]3O[C@H]1C[C@H](N)[C@H](O)[C@H](C)O1` [doxorubicin]: the “Drug incorporation into the liposomes” value is listed as 1.03±0.06 nmol/μmol of phospholipid in data set [1] ("blank" liposomes containing 100 mM sodium chloride, doxorubicin 300 nmol/μmol); 76.8±2.3 nmol/μmol of phospholipid in data set [1] (entrapped sodium phosphate, doxorubicin 300 nmol/μmol, overnight, no nigericin); 271.9±3.8 nmol/μmol of phospholipid in data set [1] (entrapped sodium phosphate, nigericin 5 μmol/L); 85.2±2.2 nmol/μmol of phospholipid in data set [1] (entrapped sodium polyphosphate, doxorubicin 300 nmol/μmol, overnight, no nigericin); 169.7±2.7 nmol/μmol of phospholipid in data set [1] (entrapped sodium polyphosphate, nigericin 5 μmol/L); 109.8±0.25 nmol/μmol of phospholipid in data set [1] (entrapped sodium polyvinylsulfate, doxorubicin 300 nmol/μmol, overnight, no nigericin). Besides, the “Drug incorporation into the liposomes” value in data set [1] (entrapped sodium polyvinylsulfate, nigericin 5 μmol/L) is recorded as 133.7±1.9 nmol/μmol of phospholipid; in data set [1] (entrapped sodium sulfate, doxorubicin 300 nmol/μmol, overnight, no nigericin), 82.1±0.95 nmol/μmol of phospholipid; in data set [1] (entrapped sodium sulfate, nigericin 5 μmol/L) it was 96.5±1.9 nmol/μmol of phospholipid. Besides, the “Effect of nigericin on drug loading” value in data set [1] (permeabilization of liposome membrane by nigericin 5 μmol/L) was “did not decrease drug loading”. In addition, in data set [2], the IC50 is 0.35 µg/mL (≈ 0.644 µM). In data set [3] (entrapped chondroitin sulfate A 5 mg/ml, overnight, pH 7.2), the “Doxorubicin content in the resulting liposomes” value is 26.0 nmol/μmol of phospholipid. Also, the “Doxorubicin content of liposomes” value in data set [3] (entrapped sodium polyacrylate, egg PC/cholesterol/PEG-DSPE, doxorubicin 200 nmol/μmol, overnight 37° C.) is reported as 129 nmol/μmol of liposomal phospholipid. Besides, the “Doxorubicin loading into liposomes” value in data set [3] (without entrapped sodium polyacrylate, similar conditions) is given as 8 nmol/μmol of phospholipid.
